The assay has as its system Aβ40 in conditioned medium of cells stably expressing Amyloid Precursor Protein (APP). Briefly: BACE cell-based assay: Aβ40 in conditioned medium by sandwich ELISA. The following applies: cell based assay data, Table 4; unit inferred; read-out: Cell Assay. The gist of the method: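 Aβ40 in conditioned medium was read by time-resolved fluorescence sandwich ELISA (capture pAb40, detection biotinylated 6E10, 4° C incubations). Compounds were applied for 24 h to cells stably expressing APP, at 10 doses from 100 or 10 μM top, 0.1% DMSO. IC50 derived from percent of control.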

Where only a bound is given, the exact number is not on record here.

Take `CC(=O)N[C@@H](CC1CC1)[C@H](O)CN[C@H]1CC2(CCC2)Oc2ncc(CC(C)(C)CC(F)F)cc21` [compound 724, N-((1S,2R)-1-(cyclopropylmethyl)-3-(((4′S)-6′-(4,4-difluoro-2,2-dimethylbutyl)-3′,4′-dihydrospiro[cyclobutane-1,2′-pyrano[2,3-b]pyridin]-4′-yl)amino)-2-hydroxypropyl)acetamide]: the IC50 is 184 nM.

With `CC(=O)N[C@@H](CC1CC1)[C@H](O)CN[C@H]1C[C@]2(C[C@H](C)C2)Oc2ncc(CC(C)(C)C)cc21` [compound 725, N-((1S,2R)-1-(cyclopropylmethyl)-3-(((1s,3R,4′S)-6′-(2,2-dimethylpropyl)-3-methyl-3′,4′-dihydrospiro[cyclobutane-1,2′-pyrano[2,3-b]pyridin]-4′-yl)amino)-2-hydroxypropyl)acetamide], the IC50 stood at 68.8 nM.

For `CC(=O)N[C@@H](Cc1ccnc(OC(F)F)c1)[C@H](O)CN[C@H]1CC2(CCC2)Oc2ncc(CC(C)(C)C)cc21` [compound 726, N-((1S,2R)-1-((2-((difluoromethyl)oxy)-4-pyridinyl)methyl)-3-(((4′S)-6′-(2,2-dimethylpropyl)-3′,4′-dihydrospiro[cyclobutane-1,2′-pyrano[2,3-b]pyridin]-4′-yl)amino)-2-hydroxypropyl)acetamide], the IC50 is 9.72 nM.

As for `CN(C)CC(=O)N[C@@H](Cc1cccc(C#N)c1)[C@H](O)CN[C@H]1CC2(CCC2)Oc2ccc(Br)cc21` [compound 727], the IC50 amounted to 300 nM.

In the case of `COC(=O)c1ccc2c(c1)[C@@H](NC[C@@H](O)[C@H](Cc1cccc(C#N)c1)NC(=O)CN(C)C)CC1(CCC1)O2` [compound 728], the IC50 was found to be 43.9 nM.

For `COC(=O)c1ccc2c(c1)[C@@H](NC[C@@H](O)[C@H](Cc1cccc(C#N)c1)NC(C)=O)CC1(CCC1)O2` [compound 729], the IC50 came out at 1450 nM.

On to `COCC(=O)N[C@@H](Cc1cccc(C#N)c1)[C@H](O)CN[C@H]1CC2(CCC2)Oc2ccc(C(=O)OC)cc21` [compound 730], for which the IC50 came to 1020 nM.

As to `CCc1ccc2c(c1)[C@@H](NC[C@@H](O)[C@H](COC)NC(C)=O)CC1(CCC1)O2` [compound 731], the IC50 is 2520 nM.

Regarding `CCCOC[C@H](NC(C)=O)[C@H](O)CN[C@H]1CC2(CCC2)Oc2ccc(CC)cc21` [compound 732], the IC50 worked out at 3260 nM.

In the case of `CCc1ccc2c(c1)[C@@H](NC[C@@H](O)[C@H](COCc1ccccc1)NC(C)=O)CC1(CCC1)O2` [compound 733], the IC50 was ≥ 10000 nM.

Take `CCc1ccc2c(c1)[C@@H](NC[C@@H](O)[C@H](Cn1cccn1)NC(C)=O)CC1(CCC1)O2` [compound 734]: the IC50 worked out at 5370 nM.

As to `CC(=O)N[C@@H](Cn1cccn1)[C@H](O)CN[C@H]1CC2(CCC2)Oc2ncc(CC(C)(C)C)cc21` [compound 735], the IC50 was ≥ 10000 nM.

In the case of `C=CC[C@H](NC(C)=O)[C@@H](O)CN[C@H]1CC2(CCC2)Oc2ncc(CC(C)(C)C)cc21` [compound 737, N-((1S)-1-((1S)-2-(((4′S)-6′-(2,2-dimethylpropyl)-3′,4′-dihydrospiro[cyclobutane-1,2′-pyrano[2,3-b]pyridin]-4′-yl)amino)-1-hydroxyethyl)-3-buten-1-yl)acetamide], the IC50 was ≥ 10000 nM.

In the case of `CC(=O)N[C@@H](CCC(F)(F)F)[C@H](O)CN[C@H]1CC2(CCC2)Oc2ncc(CC(C)(C)C)cc21` [compound 738, N-((1S)-1-((1R)-2-(((4′S)-6′-(2,2-dimethylpropyl)-3′,4′-dihydrospiro[cyclobutane-1,2′-pyrano[2,3-b]pyridin]-4′-yl)amino)-1-hydroxyethyl)-4,4,4-trifluorobutyl)acetamide], the IC50 was 1420 nM.

Turning to `C/C=C/C[C@H](NC(C)=O)[C@H](O)CN[C@H]1CC2(CCC2)Oc2ncc(CC(C)(C)C)cc21` [compound 739, N-((1S,3E)-1-((1R)-2-(((4′S)-6′-(2,2-dimethylpropyl)-3′,4′-dihydrospiro[cyclobutane-1,2′-pyrano[2,3-b]pyridin]-4′-yl)amino)-1-hydroxyethyl)-3-penten-1-yl)acetamide], the IC50 came out at 298 nM.

In the case of `C=C[C@H](NC(C)=O)[C@H](O)CN[C@H]1CC2(CCC2)Oc2ncc(CC(C)(C)C)cc21` [compound 740, N-((1S)-1-((1R)-2-(((4′S)-6′-(2,2-dimethylpropyl)-3′,4′-dihydrospiro[cyclobutane-1,2′-pyrano[2,3-b]pyridin]-4′-yl)amino)-1-hydroxyethyl)-2-propen-1-yl)acetamide], the IC50 stood at 3330 nM.

For `C=CC[C@H](NC(C)=O)[C@H](O)CN[C@H]1CC2(CCC2)Oc2ncc(CC(C)(C)F)cc21` [compound 741, N-((1S)-1-((1R)-2-(((4′S)-6′-(2-fluoro-2-methylpropyl)-3′,4′-dihydrospiro[cyclobutane-1,2′-pyrano[2,3-b]pyridin]-4′-yl)amino)-1-hydroxyethyl)-3-buten-1-yl)acetamide], the IC50 is 193 nM.

For the compound `CCC#CC[C@H](NC(C)=O)[C@H](O)CN[C@H]1CC2(CCC2)Oc2ncc(CC(C)(C)C)cc21` [compound 742], the IC50 worked out at 286 nM.

`Cc1nccn1CC(=O)N[C@@H](Cc1ccccc1)[C@H](O)CN[C@H]1CC2(CCC2)Oc2ccc(CC(C)(C)C)cc21` [compound 744, N-((1S,2R)-3-(((4S)-6-(2,2-dimethylpropyl)-3,4-dihydrospiro[chromene-2,1′-cyclobutan]-4-yl)amino)-2-hydroxy-1-(phenylmethyl)propyl)-2-(1H-2-methyl-imidazol-1-yl) acetamide]: the IC50 came out at 5.72 nM.

Turning to `CC(=O)N[C@@H](Cc1cc(F)cc(F)c1)[C@H](O)CN[C@H]1CC2(CCC2)Oc2ncc(Br)cc21` [compound 745], the IC50 was 33.1 nM.

With `CC(=O)N[C@@H](Cc1cc(F)cc(F)c1)[C@H](O)CN[C@H]1CC2(CCC2)Oc2ncc(-n3cccn3)cc21` [compound 746], the IC50 stood at 215 nM.

For the compound `CC(=O)N[C@@H](Cc1cc(F)cc(F)c1)[C@H](O)CN[C@H]1CC2(CCC2)Oc2ncc(-n3ccnc3)cc21` [compound 747], the IC50 is 498 nM.

For the compound `CC(=O)N[C@@H](Cc1cc(F)cc(F)c1)[C@H](O)CN[C@H]1CC2(CCC2)Oc2ncc(-c3nccs3)cc21` [compound 748], the IC50 is 1050 nM.

For `CC(=O)N[C@@H](Cc1ccccc1)[C@H](O)CN[C@H]1CC2(CCC2)Oc2cnc(CC(C)(C)C)cc21` [compound 749], the IC50 was 14 nM.

For `CC(=O)N[C@@H](Cc1cc(F)cc(Cl)c1)[C@H](O)CN[C@H]1CC2(CCC2)Oc2cnc(CC(C)(C)C)cc21` [compound 750], the IC50 is 20.3 nM.

As for `CC(=O)N[C@@H](Cc1cc(F)cc(Cl)c1)[C@H](O)CN[C@H]1CC2(CCC2)Oc2cnc(CC(C)(C)O)cc21` [compound 751], the IC50 worked out at 38.8 nM.

For `CC(=O)N[C@@H](Cc1cc(F)cc(Cl)c1)[C@H](O)CN[C@H]1CC2(CCC2)Oc2c1cc(CC(C)(C)C)nc2Cl` [compound 752], the IC50 is 42.2 nM.

Consider `CC(=O)N[C@@H](Cc1ccccc1)[C@H](O)CN[C@H]1CC2(CCC2)Oc2c1cc(CC(C)(C)C)nc2Cl` [compound 753], for which the IC50 turned out to be 13.8 nM.

Regarding `CC(=O)N[C@@H](Cc1ccccc1)[C@H](O)CN[C@H]1CC2(CCC2)Oc2c1cc(CC(C)(C)C)nc2N1CCOCC1` [compound 754], the IC50 turned out to be 52.2 nM.

For `CC(=O)N[C@@H](Cc1ccccc1)[C@H](O)CN[C@H]1CC2(CCC2)Oc2c1cc(CC(C)(C)C)nc2N1CCCC1` [compound 755], the IC50 is 6.5 nM.

For the compound `CC(=O)N[C@@H](Cc1cc(F)cc(N(C)C)c1)[C@H](O)CN[C@H]1CC(C)(C)Oc2c1cc(CC(C)(C)C)nc2N(C)C` [compound 756], the IC50 turned out to be 200 nM.

Consider `CC(=O)N[C@@H](Cc1cc(F)cc(Cl)c1)[C@H](O)CN[C@H]1CC(C)(C)Oc2c1cc(CC(C)(C)C)nc2N(C)C` [compound 757], for which the IC50 was 68.9 nM.

For `CC(=O)N[C@@H](Cc1ccc(F)c(F)c1)[C@H](O)CN[C@H]1CC(C)(C)Oc2c1cc(CC(C)(C)C)nc2N1CCCC1` [compound 758], the IC50 was found to be 40.1 nM.

`CC(=O)N[C@@H](Cc1cc(F)cc(N(C)C)c1)[C@H](O)CN[C@H]1CC2(CCC2)Oc2ncc(CC(C)(C)C)cc21` [compound 759]: the IC50 was 17.9 nM.

Take `CNc1nc(CC(C)(C)C)cc2c1OC(C)(C)C[C@@H]2NC[C@@H](O)[C@H](Cc1ccc(F)c(F)c1)NC(C)=O` [compound 760]: the IC50 is 11.3 nM.

With `CC(=O)N[C@@H](Cc1ccc(F)cc1)[C@H](O)CN[C@H]1CC(C)(C)Oc2c1cc(CC(C)(C)C)nc2Cl` [compound 761], the IC50 was 126 nM.

As to `CC(=O)N[C@@H](Cc1ccc(F)cc1)[C@H](O)CN[C@H]1CC(C)(C)Oc2c1cc(CC(C)(C)C)nc2N(C)C` [compound 762], the IC50 was 166 nM.

With `CC(=O)N[C@@H](Cc1cc(F)cc(Br)c1)[C@H](O)CN[C@H]1CC2(CCC2)Oc2ncc(CC(C)(C)C)cc21` [compound 763], the IC50 is 6.49 nM.

For `CC(=O)N[C@@H](Cc1cc(F)cc(F)c1)[C@H](O)CN[C@H]1CC2(CC(C)C2)Oc2ncc(CC(C)(C)C)cc21` (some centres unmarked) [compound 764], the IC50 came to 1.55 nM.

Consider `CC(=O)N[C@@H](Cc1cc(F)cc(F)c1)[C@H](O)CN[C@H]1C[C@]2(C[C@H](C)C2)Oc2ncc(CC(C)(C)C)cc21` [compound 765, N-((1S,2R)-1-((3,5-difluorophenyl)methyl)-3-(((1s,3R,4′S)-6′-(2,2-dimethylpropyl)-3-methyl-3′,4′-dihydrospiro[cyclobutane-1,2′-pyrano[2,3-b]pyridin]-4′-yl)amino)-2-hydroxypropyl)acetamide], for which the IC50 was 1.14 nM.

On to `CC(=O)N[C@@H](Cc1ccc(F)cc1)[C@H](O)CN[C@H]1CC2(CC(C)C2)Oc2ncc(CC(C)(C)C)cc21` (stereo partly drawn) [compound 766, N-((1S,2R)-3-(((4′S)-6′-(2,2-dimethylpropyl)-3-methyl-3′,4′-dihydrospiro[cyclobutane-1,2′-pyrano[2,3-b]pyridin]-4′-yl)amino)-1-((4-fluorophenyl)methyl)-2-hydroxypropyl)acetamide], for which the IC50 came out at 15.8 nM.

These data come from patent publication US7973047B2, “Beta-Secretase modulators and methods of use” (Amgen Inc., priority 2010, dated 2011).
